Key:
Raf = conditions: upstream kinase; cited from earlier work
PKC = conditions: upstream kinase; cited from earlier work
MEK = conditions: upstream kinase; cited from earlier work
p90 RSK = p90 RSK (Homo sapiens, UniProt P51812); assay: inhibition of the kinase activity of p90 RSK (Table 1); format: biochemical
Text: Methods for testing the ability of SL0101, and analogs and derivatives thereof, synthesized according to the methods disclosed herein, to inhibit p90 ribosomal S6 kinase (RSK) activity and cellular and metabolic processes downstream from RSK activity, are known to those of ordinary skill in the art. Some specific assays are provided in citation number 5 (Smith et al., Cancer Res., 2005, 65:1027), which is incorporated by reference in its entirety. The assays include various kinase assays, cell cycle analysis, gene silencing, and analysis of cells and tissues in vitro and in vivo.
Some specific assays are provided in citation number 5 (Smith et al., Cancer Res., 2005, 65:1027), which is incorporated by reference in its entirety.

p90 RSK, sequence (P51812 whole entry): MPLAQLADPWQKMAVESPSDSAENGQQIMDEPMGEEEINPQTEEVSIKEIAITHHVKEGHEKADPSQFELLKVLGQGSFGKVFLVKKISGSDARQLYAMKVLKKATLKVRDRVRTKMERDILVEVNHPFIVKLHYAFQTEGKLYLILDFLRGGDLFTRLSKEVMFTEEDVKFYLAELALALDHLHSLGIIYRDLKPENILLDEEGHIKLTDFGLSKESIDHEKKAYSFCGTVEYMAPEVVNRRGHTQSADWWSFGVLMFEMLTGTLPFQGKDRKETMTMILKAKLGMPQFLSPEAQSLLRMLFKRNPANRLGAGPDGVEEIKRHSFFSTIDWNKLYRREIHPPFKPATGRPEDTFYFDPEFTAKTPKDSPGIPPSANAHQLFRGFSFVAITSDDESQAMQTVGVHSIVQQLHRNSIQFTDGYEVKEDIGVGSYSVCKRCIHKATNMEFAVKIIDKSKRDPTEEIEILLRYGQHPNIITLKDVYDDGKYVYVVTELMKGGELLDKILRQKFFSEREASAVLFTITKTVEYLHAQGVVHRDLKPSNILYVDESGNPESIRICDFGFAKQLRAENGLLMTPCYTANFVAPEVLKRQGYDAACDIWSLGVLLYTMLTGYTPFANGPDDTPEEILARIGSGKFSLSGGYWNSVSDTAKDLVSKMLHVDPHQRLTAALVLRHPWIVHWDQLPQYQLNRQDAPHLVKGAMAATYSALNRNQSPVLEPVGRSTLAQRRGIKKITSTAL

| Structure (SMILES) | inhibition of Raf (Raf) | inhibition of PKC (PKC) | inhibition of MEK (MEK) | IC50 (p90 RSK) |
| --- | --- | --- | --- | --- |
| CC(=O)OC1C(C)OC(Oc2c(-c3ccc(O)cc3)oc3cc(O)cc(O)c3c2=O)C(O)C1OC(C)=O (centres unmarked) [SL0101-1] | not to inhibit | not to inhibit | not to inhibit |  |
| CC(=O)OC1C(C)OC(Oc2c(-c3ccc(O)cc3)oc3cc(O)cc(O)c3c2=O)C(O)C1O (centres unmarked) [SL0101-2] |  |  |  | 189 nM |
| CC(=O)OC1C(C)OC(Oc2c(-c3ccc(O)cc3)oc3cc(O)cc(O)c3c2=O)C(OC(C)=O)C1O (centres unmarked) [SL0101-3] |  |  |  | 580 nM |
